The values below come from publication doi:10.1101/2024.08.19.608619, “Discovery of potent SARS-CoV-2 nsp3 macrodomain inhibitors uncovers lack of translation to cellular antiviral response” (bioRxiv, 2024).

The structures appear in SMILES notation. Where two headings read alike, the source gives them in different places.

What all share (assay): biochemical
Holding throughout (parameters): In vitro kinase panel profiling, per cent remaining kinase activity at 10 uM

For experiment [1], the target named is T1, Abl(h) (Homo sapiens, UniProt P00519).
T1 construct: gene ABL1
Conditions: atp_concentration=45, read-out: % of control remaining. An excerpt:
(§1) We derisk potential for off-target activity by profiling the compound in a CEREP panel, a standard secondary pharmacology assessment, as well as a kinase panel to derisk a potential hinge-binding motif in our leads, and a PARP panel to derisk activity against human […]. Reassuringly, the compounds are selective, with the only off-targets being moderate human CHRM2 and KOR receptors activity associated with ASAP-0011198.

For experiment [2], the target named is T2, PRAK(h) (Homo sapiens, UniProt Q8IW41).
T2 construct: gene MAPKAPK5
T2 sequence (Q8IW41 1-473): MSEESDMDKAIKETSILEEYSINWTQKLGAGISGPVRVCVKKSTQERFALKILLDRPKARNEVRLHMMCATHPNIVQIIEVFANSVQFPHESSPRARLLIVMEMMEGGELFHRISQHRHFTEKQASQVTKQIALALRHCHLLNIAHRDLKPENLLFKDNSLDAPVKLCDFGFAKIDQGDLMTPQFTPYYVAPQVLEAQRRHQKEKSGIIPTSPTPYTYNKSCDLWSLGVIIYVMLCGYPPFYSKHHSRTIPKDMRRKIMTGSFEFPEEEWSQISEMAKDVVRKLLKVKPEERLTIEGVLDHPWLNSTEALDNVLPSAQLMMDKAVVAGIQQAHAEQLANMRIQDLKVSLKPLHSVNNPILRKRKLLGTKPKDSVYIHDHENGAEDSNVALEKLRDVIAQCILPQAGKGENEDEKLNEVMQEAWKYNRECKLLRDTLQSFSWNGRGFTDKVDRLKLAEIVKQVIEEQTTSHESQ
Particulars: atp_concentration=15, read-out: % of control remaining.
Source text: as §1

Experiment [3] deals with T3, IKKα(h) (Homo sapiens, UniProt O15111).
T3 construct: gene CHUK
T3 sequence (O15111 1-745): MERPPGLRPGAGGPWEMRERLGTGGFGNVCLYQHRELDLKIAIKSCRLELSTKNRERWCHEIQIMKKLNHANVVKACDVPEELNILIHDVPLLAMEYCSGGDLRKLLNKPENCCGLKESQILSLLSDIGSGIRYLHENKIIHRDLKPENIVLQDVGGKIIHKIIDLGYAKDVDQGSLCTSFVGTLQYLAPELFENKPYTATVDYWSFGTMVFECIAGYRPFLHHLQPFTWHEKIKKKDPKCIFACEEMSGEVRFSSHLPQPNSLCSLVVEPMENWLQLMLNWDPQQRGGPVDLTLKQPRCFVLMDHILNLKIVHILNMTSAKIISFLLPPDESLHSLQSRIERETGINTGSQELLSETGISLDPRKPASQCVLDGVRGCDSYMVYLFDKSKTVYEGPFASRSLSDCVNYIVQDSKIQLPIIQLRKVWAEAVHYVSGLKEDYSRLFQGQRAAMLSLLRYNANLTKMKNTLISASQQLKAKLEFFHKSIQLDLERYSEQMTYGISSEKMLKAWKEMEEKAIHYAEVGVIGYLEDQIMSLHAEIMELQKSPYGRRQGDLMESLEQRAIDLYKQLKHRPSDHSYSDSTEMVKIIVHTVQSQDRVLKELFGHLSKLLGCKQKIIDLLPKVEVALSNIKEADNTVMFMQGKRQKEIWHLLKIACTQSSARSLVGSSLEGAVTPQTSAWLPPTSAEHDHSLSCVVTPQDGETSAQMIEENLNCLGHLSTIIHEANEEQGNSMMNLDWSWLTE
Particulars: atp_concentration=10, read-out: % of control remaining.
Source text: as §1

Experiment [4] has as its target T4, Mnk2(h) (Homo sapiens, UniProt Q9HBH9).
T4 construct: gene MKNK2
Particulars: atp_concentration=120, read-out: % of control remaining.
Source text: as §1

Experiment [5] concerns the target T5, Rse(h) (Homo sapiens, UniProt Q06418).
T5 construct: gene TYRO3
T5 sequence (Q06418 1-890): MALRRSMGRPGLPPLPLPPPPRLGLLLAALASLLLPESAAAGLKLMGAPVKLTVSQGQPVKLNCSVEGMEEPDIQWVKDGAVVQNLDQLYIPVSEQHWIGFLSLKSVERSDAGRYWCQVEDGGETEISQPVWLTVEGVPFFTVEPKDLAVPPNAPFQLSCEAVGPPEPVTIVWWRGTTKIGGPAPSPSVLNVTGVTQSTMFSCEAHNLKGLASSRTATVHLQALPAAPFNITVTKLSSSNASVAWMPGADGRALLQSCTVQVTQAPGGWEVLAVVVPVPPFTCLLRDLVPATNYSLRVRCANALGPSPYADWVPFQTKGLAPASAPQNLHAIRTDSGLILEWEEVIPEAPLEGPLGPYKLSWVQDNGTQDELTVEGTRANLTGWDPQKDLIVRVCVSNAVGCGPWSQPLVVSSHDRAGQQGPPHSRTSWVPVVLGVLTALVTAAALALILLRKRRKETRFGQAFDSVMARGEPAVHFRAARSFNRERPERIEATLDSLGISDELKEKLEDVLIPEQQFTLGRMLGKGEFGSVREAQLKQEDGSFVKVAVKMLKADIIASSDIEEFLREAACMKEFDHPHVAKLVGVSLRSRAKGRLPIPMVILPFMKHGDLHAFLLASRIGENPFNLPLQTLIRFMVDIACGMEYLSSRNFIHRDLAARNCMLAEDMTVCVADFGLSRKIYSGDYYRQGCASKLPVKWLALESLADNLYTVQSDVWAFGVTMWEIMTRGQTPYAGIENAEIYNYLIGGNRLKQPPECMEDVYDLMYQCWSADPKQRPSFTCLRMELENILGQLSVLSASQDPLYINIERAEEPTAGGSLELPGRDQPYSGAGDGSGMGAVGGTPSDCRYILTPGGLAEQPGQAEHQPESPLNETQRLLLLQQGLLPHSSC
Conditions: atp_concentration=45, read-out: % of control remaining.
Source text: as §1

The target in experiment [6] is CDK1/cyclinB(h) (Homo sapiens, UniProt P06493). Conditions: atp_concentration=45, read-out: % of control remaining.
Source text: as §1

Experiment [7] concerns the target SRPK1(h) (Homo sapiens, UniProt Q96SB4). Particulars: atp_concentration=10, read-out: % of control remaining.
Source text: as §1

Chain of CDK1/cyclinB(h) (P06493 whole entry): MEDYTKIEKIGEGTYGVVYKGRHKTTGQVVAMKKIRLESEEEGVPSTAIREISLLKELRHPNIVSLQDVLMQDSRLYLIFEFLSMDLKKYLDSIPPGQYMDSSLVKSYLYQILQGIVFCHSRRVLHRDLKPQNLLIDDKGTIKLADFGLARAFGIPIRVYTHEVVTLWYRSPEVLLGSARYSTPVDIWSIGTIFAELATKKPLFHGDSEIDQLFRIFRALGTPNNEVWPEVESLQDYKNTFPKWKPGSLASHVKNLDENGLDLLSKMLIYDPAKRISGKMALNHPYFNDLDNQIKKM
Chain of CDK1/cyclinB(h) (P14635 whole entry partner): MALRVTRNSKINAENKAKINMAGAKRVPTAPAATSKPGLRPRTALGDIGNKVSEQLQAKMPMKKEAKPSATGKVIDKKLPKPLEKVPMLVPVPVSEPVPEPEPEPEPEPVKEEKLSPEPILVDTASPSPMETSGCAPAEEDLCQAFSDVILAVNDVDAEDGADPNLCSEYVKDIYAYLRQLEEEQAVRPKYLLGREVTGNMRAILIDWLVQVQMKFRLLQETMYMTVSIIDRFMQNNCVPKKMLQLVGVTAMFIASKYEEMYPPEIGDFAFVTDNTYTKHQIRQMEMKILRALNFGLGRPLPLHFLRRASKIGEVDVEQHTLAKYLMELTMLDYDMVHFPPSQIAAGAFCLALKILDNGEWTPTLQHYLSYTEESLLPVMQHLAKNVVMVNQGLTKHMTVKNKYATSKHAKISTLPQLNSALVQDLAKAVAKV
Chain of SRPK1(h) (Q96SB4 whole entry): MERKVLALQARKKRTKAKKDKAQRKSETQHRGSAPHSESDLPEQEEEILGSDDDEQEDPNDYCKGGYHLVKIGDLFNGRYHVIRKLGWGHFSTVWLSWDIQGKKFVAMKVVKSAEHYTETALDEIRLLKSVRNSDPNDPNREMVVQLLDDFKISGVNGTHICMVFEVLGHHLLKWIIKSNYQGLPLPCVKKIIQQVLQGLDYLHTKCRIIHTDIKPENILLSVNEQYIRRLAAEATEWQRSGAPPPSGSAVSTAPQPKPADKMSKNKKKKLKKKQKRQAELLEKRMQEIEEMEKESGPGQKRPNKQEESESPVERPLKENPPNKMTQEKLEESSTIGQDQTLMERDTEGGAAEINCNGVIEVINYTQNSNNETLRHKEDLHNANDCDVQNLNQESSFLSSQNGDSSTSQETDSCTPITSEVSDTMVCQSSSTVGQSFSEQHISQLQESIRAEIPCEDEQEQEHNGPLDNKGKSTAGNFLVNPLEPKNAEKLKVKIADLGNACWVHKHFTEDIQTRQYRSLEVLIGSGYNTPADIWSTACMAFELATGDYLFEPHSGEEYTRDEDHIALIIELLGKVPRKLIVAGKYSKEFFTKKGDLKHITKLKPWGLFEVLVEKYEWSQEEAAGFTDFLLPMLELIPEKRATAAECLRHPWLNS
T1 sequence (P00519 whole entry): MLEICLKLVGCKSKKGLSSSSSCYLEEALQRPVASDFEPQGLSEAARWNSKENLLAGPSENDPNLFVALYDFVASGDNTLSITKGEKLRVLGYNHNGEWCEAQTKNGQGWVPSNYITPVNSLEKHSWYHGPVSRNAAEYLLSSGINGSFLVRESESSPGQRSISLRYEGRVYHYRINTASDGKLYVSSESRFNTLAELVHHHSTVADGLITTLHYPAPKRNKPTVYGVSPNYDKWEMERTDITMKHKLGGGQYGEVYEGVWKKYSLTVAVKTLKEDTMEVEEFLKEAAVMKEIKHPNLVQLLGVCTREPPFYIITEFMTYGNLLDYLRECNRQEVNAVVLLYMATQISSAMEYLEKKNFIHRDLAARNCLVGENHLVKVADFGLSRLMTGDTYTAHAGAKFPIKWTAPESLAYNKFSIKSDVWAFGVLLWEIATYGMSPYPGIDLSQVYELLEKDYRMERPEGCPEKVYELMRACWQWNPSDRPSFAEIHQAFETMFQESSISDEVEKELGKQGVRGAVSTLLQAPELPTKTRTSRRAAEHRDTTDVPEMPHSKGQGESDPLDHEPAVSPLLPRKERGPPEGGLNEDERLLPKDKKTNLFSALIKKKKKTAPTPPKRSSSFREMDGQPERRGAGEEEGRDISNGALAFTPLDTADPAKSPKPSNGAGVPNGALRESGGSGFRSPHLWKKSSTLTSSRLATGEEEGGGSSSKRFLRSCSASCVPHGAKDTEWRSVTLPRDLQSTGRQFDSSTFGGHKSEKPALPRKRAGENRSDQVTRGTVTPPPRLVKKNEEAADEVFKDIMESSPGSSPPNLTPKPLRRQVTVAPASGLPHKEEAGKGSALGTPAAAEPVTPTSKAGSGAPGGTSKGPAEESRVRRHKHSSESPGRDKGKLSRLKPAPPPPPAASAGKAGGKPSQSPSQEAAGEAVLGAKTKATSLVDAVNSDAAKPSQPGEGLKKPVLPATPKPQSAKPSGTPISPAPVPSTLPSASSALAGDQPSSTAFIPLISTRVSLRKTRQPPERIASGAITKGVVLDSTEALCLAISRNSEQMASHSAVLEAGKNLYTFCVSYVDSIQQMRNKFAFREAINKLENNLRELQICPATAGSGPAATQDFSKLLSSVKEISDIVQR
T4 sequence (Q9HBH9 whole entry): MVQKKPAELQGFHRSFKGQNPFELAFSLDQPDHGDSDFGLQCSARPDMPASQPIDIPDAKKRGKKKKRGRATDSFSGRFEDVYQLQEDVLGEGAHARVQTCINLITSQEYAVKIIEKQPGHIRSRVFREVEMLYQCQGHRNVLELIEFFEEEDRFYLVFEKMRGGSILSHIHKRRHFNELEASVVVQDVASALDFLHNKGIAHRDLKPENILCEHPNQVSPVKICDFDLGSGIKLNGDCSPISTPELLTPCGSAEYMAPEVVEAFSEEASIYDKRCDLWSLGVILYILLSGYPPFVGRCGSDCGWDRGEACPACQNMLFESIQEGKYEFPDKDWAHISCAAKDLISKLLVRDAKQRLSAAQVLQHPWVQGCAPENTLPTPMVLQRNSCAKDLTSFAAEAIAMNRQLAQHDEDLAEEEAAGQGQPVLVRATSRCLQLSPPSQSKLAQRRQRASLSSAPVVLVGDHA

`Cn1ncc(-c2cc3c(N[C@@H](c4ccc5c(n4)OCCO5)C(C)(C)C)ncnc3[nH]2)c1C#N` [ASAP-0011221]: the remaining activity at 10 µM turned out to be 81% in experiment [1] (batch_name=ASAP-0011221-002); 86% in experiment [2] (batch_name=ASAP-0011221-002); 125% in experiment [3] (batch_name=ASAP-0011221-002); 100% in experiment [4] (batch_name=ASAP-0011221-002); 110% in experiment [5] (batch_name=ASAP-0011221-002); 97% in experiment [6] (batch_name=ASAP-0011221-002). Moreover, in experiment [7] (batch_name=ASAP-0011221-002), the remaining activity at 10 µM is 117%.
On to `Cc1nn(C)cc1-c1cc2c(NC(c3ccc4c(c3)S(=O)(=O)CCC4)C(C)C)ncnc2[nH]1` (stereo not shown) [ASAP-0011446], for which the remaining activity at 10 µM in experiment [1] (batch_name=ASAP-0011446-002) was found to be 76%; in experiment [2] (batch_name=ASAP-0011446-002), 82%; in experiment [3] (batch_name=ASAP-0011446-002) it was 94%; in experiment [4] (batch_name=ASAP-0011446-002), 99%; in experiment [5] (batch_name=ASAP-0011446-002), 96%; in experiment [6] (batch_name=ASAP-0011446-002), 91%. Besides, the remaining activity at 10 µM in experiment [7] (batch_name=ASAP-0011446-002) was 104%.
`C[C@H](C(=O)O)[C@@H](NC(=O)c1ncnc2[nH]ccc12)c1ccc(Br)cc1` [ASAP-0014722]: the remaining activity at 10 µM was 97% in experiment [1] (batch_name=ASAP-0014722-002); 88% in experiment [2] (batch_name=ASAP-0014722-002); 99% in experiment [3] (batch_name=ASAP-0014722-002); 110% in experiment [4] (batch_name=ASAP-0014722-002); 87% in experiment [5] (batch_name=ASAP-0014722-002); 92% in experiment [6] (batch_name=ASAP-0014722-002). In addition, the remaining activity at 10 µM in experiment [7] (batch_name=ASAP-0014722-002) worked out at 97%.
On to `COc1ccc([C@H](Cc2nnn[nH]2)NC(=O)c2ncnc3[nH]ccc23)cc1` [ASAP-0015381], for which the remaining activity at 10 µM in experiment [1] (batch_name=ASAP-0015381-001) worked out at 102%; in experiment [2] (batch_name=ASAP-0015381-001), 109%; in experiment [3] (batch_name=ASAP-0015381-001) it was 98%; in experiment [4] (batch_name=ASAP-0015381-001), 115%; in experiment [5] (batch_name=ASAP-0015381-001), 100%; in experiment [6] (batch_name=ASAP-0015381-001) it was 98%. In addition, the remaining activity at 10 µM in experiment [7] (batch_name=ASAP-0015381-001) was 103%.
